{"source": "patent US20140106387A1", "about": "“METHOD FOR CONTROLLING NAD(P)/NAD(P)H RATIO BY OXIDOREDUCTASE” (MD BIOALPHA CO., LTD., priority 2006, published 2014)", "key": {"[1]": {"test": "body weight and dietary intake of leptin receptor-deficient (ob/ob) mice", "type": "in vivo, mouse", "experimental": "All experimental animal procedures were performed according to a guideline of Institutional Animal Care and Use Committee, Chungnam National University School of Medicine. OLETF rats were purchased from Otsuka Research Institute. Male ob/ob and C57BL/6 mice were purchased from Jackson Laboratory. Animals were housed in a breeding room maintained at a constant temperature of […] and a 12 h/12 h light/dark (L/D) cycle. 4-week-old C57BL/6 male mice were fed ad libitum high fat diet (HFD, 24% (w/w) and 45% calories as fat, Research Diets Inc., New Brunswick, N.J. 08901, US) for 7 weeks. Mouse groups were divided into an untreated group, a vehicle-treated group (calcium silicate), a pair-fed group and a candidate compound-treated group (calcium silicate-coated […] nanoparticles). Body weight and dietary intake of animals were daily measured. Upon completion of experiments, some mice of each group were anesthetized and received MRI examinations. The remaining mice of the groups were anatomized and tissue weight thereof was measured. Epidydimal fat, liver, soleus muscle and extensor digitorum longus (EDL) were prepared, and immunohistochemical, oil-red 0 and pH-sensitive ATPase staining were performed for analysis.\nFIGS. 46 and 47 show changes in dietary intake/body weight and changes in body weight for 56 days, according to daily administration of pyrano-1,2-naphthoquinone into leptin receptor-deficient (ob/ob) mice at a dose of 200 mg/kg via an oral route.\nThis Example was intended to examine effects of varying in vivo NAD(P)^+/NAD(P)H ratio by arbitrary external supply of NAD(P)^+, a method capable of elevating the NAD(P)^+/NAD(P)H ratio in vivo. 100 mg/kg of NAD^+ was administered daily to leptin receptor-deficient (ob/ob) mice via an intraperitoneal (i.p.) route. A control mice group was given i.p. administration of physiological saline at the same dose. Changes in dietary intake/body weight (A) and changes in body weight (B) were measured for 30 days.\n200 mg/kg of DMF was daily administered to leptin receptor-deficient (ob/ob) mice via an oral route. A control group received daily i.p. administration of physiological saline at the same dose. Changes in body weight (A) and changes in dietary intake (B) were measured for 30 days. It was confirmed that dietary intake of the treatment group was regulated to a 60 to 70% level of the control group.\nFor a variety of NQO1-activating candidate compounds as listed in Table 1 below, a decrease of NAD(P)H was measured based on the aforesaid experimental method (disclosed in Section 10 hereinbefore: NADH recycling assay). In addition, according to the experimental method given in Example 23, the body weight of ob/ob mice after four weeks was measured.\nIn this connection, the decreasing degree of NAD(P)H was expressed as a relative amount of NAD(P)H measured upon administration of the NQO1-activating candidate compound, by taking the amount of NAD(P)H in the absence of the NQO1 activator NAD(P)H to be 100. In addition, the degree of the body weight loss was expressed as a percentage of the body weight of ob/ob mice with administration of the NQO1-activating candidate compound, relative to the body weight of ob/ob mice without administration of the NQO1-activating candidate compound (control) after four weeks."}, "HEK293 cells": {"test_system": "HEK293 cells", "test": "intracellular NADH / NAD(P)H concentration in HEK293 cells", "type": "cell-based, human", "details": "for intracellular NADH concentration: 2 hours", "experimental": "2) Determination of Intracellular NAD(P)H Using a Water-Soluble Tetrazolium Salt-8 (WST-8) in Living Cells:\nA water-soluble tetrazolium salt was used to monitor the amount of NAD(P)H through its reduction to a yellow colored formazan dye. The total amount of NAD(P)H within viable cells in the medium was determined periodically by a spectrophotometer. Cells were seeded in 96-well plates (2×10^4 cells/well) and were cultured in 100 μl of a medium containing fetal bovine serum (FBS) and antibiotics for 24 hours. Immediately after treatment of the cells with a candidate compound (e.g., pyrano-1,2-naphthoquinone) at indicated concentrations and a 1/10 volume of a CCK-8 solution (Dojindo Molecular Technology), absorbance measurements were carried out using a spectrophotometer. The CCK-8 solution consisted of a water-soluble 2-(2-methoxy-4-nitrophenyl)-3-(4-nitrophenyl)-5-(2,4-disulfophenyl)-2H-tetrazolium monosodium salt (WST-8, 5 mM) and 1-methoxy-5-methylphenazinium methylsulfate (1-methoxy PMS, 0.2 mM) as an electron mediator. WST-8 produced a water-soluble yellow colored formazan dye through its bioreduction either in the presence of an electron carrier, 1-methoxy PMS and NAD(P)H or directly by NAD(P)H. Therefore, the reduction in tetrazolium salts mostly depends on the amount of intracellular NAD(P)H. The amount of formazan dye produced by the living cells in the medium was determined periodically at a wavelength of 450 nm (reference filter. 650 nm) by a spectrophotometer and compared to the values of control. In addition, a medium blank was prepared with only medium and physiological saline.\nIn order to monitor monochromatic fluorescence (350 nm), light was illuminated using a 75 W xenon arc lamp directed via a 10 Hz chopper wheel; specific fluorescence intensity was measured at a wavelength of 405±15 nm and 460±10 nm.\nSpecifically, the NQO1 activity and changes in the intracellular NAD(P)H fluorescence concentration in the presence/absence of NQO1 activity were measured in HepG2, HEK293 and pSG5 HA-NQO1 or pSG5 HA NQO1 C609T-inserted HEK293 cells."}, "cardiomyocytes": {"test_system": "cardiomyocytes", "test": "mitochondrial oxygen consumption in cardiomyocytes", "type": "cell-based", "excerpt": "FIG. 22 is a graph showing monitoring results of mitochondrial oxygen consumption using a Clark-type oxygen electrode;"}}, "data": [{"compound": "CC1(C)CCC2=C(O1)c1ccccc1C(=O)C2=O", "note": "[βL, 2,2-Dimethyl-3,4-dihydro-2H-benzo[h]chromene-5,6-dione]", "values": [{"measurement": "body weight", "setting": "[1]; 200 mg/kg daily oral, 56 days", "value": "effectively decreases body weight"}, {"measurement": "dietary intake level recovered, relative to control group", "setting": "[1]; 200 mg/kg daily oral, after around 10 days", "value": 70, "unit": "%"}, {"measurement": "dietary intake/body weight", "setting": "[1]; 200 mg/kg daily oral, at around 10 days", "value": "notably decreased"}, {"measurement": "Weight reduction In ob/ob mice (4 wk)", "setting": "[1]; after four weeks, relative to ob/ob mice without administration (control), method of Example 23", "value": "−16.8 ± 2.9", "unit": "%"}, {"measurement": "intracellular NADH concentration", "setting": "HEK293 cells; HEK293 cells after insertion of an NQO1 gene", "value": "concentration-dependent decrease of NADH"}, {"measurement": "intracellular NADH concentration", "setting": "HEK293 cells; HEK293 cells having no NQO1 activity", "value": "no change in an NADH concentration"}, {"measurement": "NAD(P)H oxidation", "setting": "HEK293 cells; HEK293 cells with insertion of a wild-type NQO1 gene", "value": "βL-facilitated NAD(P)H oxidation"}, {"measurement": "NAD(P)H oxidation", "setting": "HEK293 cells; HEK293 cells with insertion of catalytically inactive NQO1C609T gene", "value": "no oxidation of NAD(P)H"}, {"measurement": "NAD(P)H oxidation", "setting": "HEK293 cells; control HEK293 cells without the NQO1 activity", "value": "no such changes"}, {"measurement": "mitochondrial oxygen consumption", "setting": "cardiomyocytes", "value": "increased"}]}]}
